Bridge positions count the residues as written; N and C are the ends. Square brackets hold non-standard residues; d marks the D form. Peptide text beside a SMILES is read from it. Orn = NCCC[C@H](N)C(=O)O; Mpa = O=C(O)CCS
Tested on: not given
Experiment: not given
Conditions: not given

| melting point [°C] | SMILES |
| --- | --- |
| 138 to 140 | CC(C)C[C@@H](C(=O)OCc1ccccc1)N1C(=O)[C@@H](N2C(=O)OC[C@@H]2c2ccccc2)[C@H]1CCc1ccccc1 [Example 28, Benzyl 2-(S)-isobutyl-2-[3(S)-(4(S)-phenyloxazolidin-2-on-3-yl)-4(R)-(2-(phenyl)-ethyl)-azetidin-2-on-1-yl]acetate] |
| 150 to 152 | CC1(C(C(=O)NCc2ccccc2)N2C(=O)C(N3C(=O)OCC3c3ccccc3)C2C=Cc2ccccc2)OCCO1 [Example 30, N-[Benzyl]-2-[(1,1-ethyleneketal)acetyl]-2-[3(S)-(4(S)-phenyloxazolidin-2-on-3-yl)-4(R)-(2-styryl)-azetidin-2-on-1-yl)acetamide] |
| 180 | CC(C)(C)C[C@@H](C(=O)OCc1ccccc1)N1C(=O)[C@H](N2C(=O)OC[C@H]2c2ccccc2)[C@@H]1C=Cc1ccco1 [Example 27, Benzyl 2(S)-(2,2-dimethyl)propyl-2-[3(R)-(4(R)-phenyloxazolidin-2-on-3-yl)-4(S)-(1-(fur-2-yl)-ethylen-2-yl)-azetidin-2-on-1-yl]acetate] |
| 158 to 160 | CC(C)(C)OC(=O)C(C(=O)Cc1cccc(C(F)(F)F)c1)N1C(=O)C(N2C(=O)OCC2c2ccccc2)C1C=Cc1ccccc1 (mixture of isomers) [Example 50, tert-Butyl 2(R,S)-[3-(trifluoro)phenylacetyl]-2-[3(S)-(4(S)-phenyloxazolidin-2-on-3-yl)-4(R)-(2-styryl)-azetidin-2-on-1-yl]acetate] |

Tested on: preterm contractions
Experiment: not given
Conditions: studied clinically (Goodwin, et al., 1994); cited from earlier work

| SMILES | inhibition of preterm contractions versus placebo |
| --- | --- |
| CCOc1ccc(C[C@H]2NC(=O)CCSSC[C@@H](C(=O)N3CCC[C@H]3C(=O)N[C@@H](CCCN)C(=O)NCC(N)=O)NC(=O)[C@H](CC(N)=O)NC(=O)[C@H]([C@@H](C)O)NC(=O)[C@H]([C@@H](C)CC)NC2=O)cc1 [atosiban] ([Mpa][dY](Et)ITNCP[Orn]G-NH2; disulfide 1-6) | more significant inhibition of preterm contractions than did placebo |

Target: T1, human vasopressin V1a receptor (Homo sapiens, UniProt P37288)
T1 construct: expressed in transfected cells; host or cells: CHO (hV1a cell line), membrane preparation
T1 sequence (P37288 whole entry): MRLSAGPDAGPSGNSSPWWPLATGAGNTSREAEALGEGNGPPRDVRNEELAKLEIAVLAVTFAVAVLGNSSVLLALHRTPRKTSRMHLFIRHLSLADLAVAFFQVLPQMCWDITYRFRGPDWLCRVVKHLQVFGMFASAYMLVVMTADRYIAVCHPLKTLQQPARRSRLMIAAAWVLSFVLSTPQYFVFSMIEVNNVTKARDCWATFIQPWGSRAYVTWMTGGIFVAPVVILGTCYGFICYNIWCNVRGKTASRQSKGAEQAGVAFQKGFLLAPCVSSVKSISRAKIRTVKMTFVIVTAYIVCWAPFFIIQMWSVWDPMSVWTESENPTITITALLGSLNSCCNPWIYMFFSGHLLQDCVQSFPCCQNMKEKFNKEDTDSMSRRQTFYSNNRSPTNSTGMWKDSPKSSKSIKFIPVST
Experiment: human vasopressin V1a receptor binding, [3H]PMP-AVP, hV1a (CHO) cell membranes
Conditions: [3H]PMP-AVP 0.2 nM, read-out: BINDING AFFINITY (IC50 (nM))
Protocol: The human vasopressin V1a receptor has been cloned and expressed (Thibonnier et al., Journal of Biological Chemistry, 269, 3304-3310 (1994)). The nucleotide sequence has been deposited in the EMBL Databank under accession number Z11690.
The hV1a cell line was grown in alpha-MEM (alpha modification of Minimum essential medium Eagle, Sigma, St. Louis, Mo., USA) with 10% fetal bovine serum and 250 μg/ml G418 (Gibco, Grand Island, N.Y., USA). To prepare membranes, hV1a cells were grown to confluency in 20 roller bottles. Cells were dissociated with enzyme-free cell dissociation medium (Specialty Media, Lavallette, N.J., USA) and centrifuged at 2500 rpm for 10 minutes. The pellet was resuspended in 40 mL of Tris-HCl (tris[hydroxymethyl]aminomethane hydrochloride) buffer (50 mM, pH 7.4) and homogenized for 1 minute with a Tekmar Tissumizer (Cincinnatti, Ohio USA). The suspension was centrifuged at 40,000×g for 10 minutes. The pellet was resuspended and centrifuged as above. The final pellet was suspended in 80 mL of Tris 7.4 buffer and stored in 4 mL aliquots at −80° C. For assay, aliquots were resuspended in assay buffer and diluted to 125 μg protein per mL. Protein concentration was determined by BCA assay (Pierce, Rockford, Ill., USA).
Assay buffer was prepared by adjusting the pH of a solution of 50 mMol HEPES (N-2-Hydroxyethylpiperazine-N′-2-ethanesulfonic acid, Sigma, St. Louis, Mo., USA), 5 mMol MgCl2, and 1 mMol dithiothreitol pH 7.4 with NaOH, after which 40 μg/mL bacitracin and 10 μg/mL aprotinin were added. The radioligand for binding assays was [^3H]PMP-AVP (Manning vasopressin antagonist, 56 Ci/mMol, DuPont NEN, Boston, MA, USA). The order of additions was 195 μL assay buffer, 200 μL hV1a membranes (25 μg protein) in assay buffer, 5 μL of test agent in dimethylsulfoxide (DMSO) or DMSO alone, and 100 μL [^3H]PMP-AVP in assay buffer (final concentration 0.2 nM). Incubations were for one hour at room temperature. […] The filters were washed with ice-cold 50 mM Tris-HCl (pH 7.7 at 25° C.) and the filter circles were placed in scintillation vials, to which were then added 5 mL Ready Protein Plus scintillation fluid, and counted in a liquid scintillation counter. […] IC50 values were calculated by nonlinear least-squares curve-fitting to a 4-parameter logistic model.

| IC50 [nM] | SMILES |
| --- | --- |
| 41 | CC(C)C[C@@H](C(=O)NCc1cccc(C(F)(F)F)c1)N1C(=O)[C@@H](N2C(=O)OC[C@@H]2c2ccccc2)[C@H]1/C=C/c1ccccc1 [Example 113] |
| 23 | CCC1(C(C(=O)NCc2ccccc2)N2C(=O)C(N3C(=O)OCC3c3ccccc3)C2C=Cc2ccccc2)OCCO1 [Example 31, N-[benzyl]-2-[(1,1-ethyleneketal)propionyl]-2-[3(S)-(4(S)-phenyloxazolidin-2-on-3-yl)-4(R)-(2-styryl)-azetidin-2-on-1-yl]acetamide] |
| 28 | CC(C)(C)C[C@@H](C(=O)OCc1ccccc1)N1C(=O)[C@H](N2C(=O)OC[C@H]2c2ccccc2)[C@@H]1C=Cc1ccco1 [Example 27, Benzyl 2(S)-(2,2-dimethyl)propyl-2-[3(R)-(4(R)-phenyloxazolidin-2-on-3-yl)-4(S)-(1-(fur-2-yl)-ethylen-2-yl)-azetidin-2-on-1-yl]acetate] |
| 9 | CC(C)(C)C(=O)[C@@H](C(=O)OCc1ccccc1)N1C(=O)[C@@H](N2C(=O)OC[C@@H]2c2ccccc2)[C@H]1C=Cc1ccco1 [Example 54B, Benzyl 2-(S)-[2,2-dimethylpropanoyl]-2-[3(S)-(4(S)-phenyloxazolidin-2-on-3-yl)-4(R)-(1-(fur-2-yl)ethylen-2-yl)-azetidin-2-on-1-yl]acetate] |
| 11 | CC(C)(C)C(=O)C(C(=O)OCc1cccc(Cl)c1)N1C(=O)C(N2C(=O)OCC2c2ccccc2)C1C=Cc1ccccc1 (mixture of isomers) [Example 46, 3-Chlorobenzyl 2(R,S)-[2,2-dimethylpropanoyl]-2-[3(S)-(4(S)-phenyloxazolidin-2-on-3-yl)-4(R)-(2-styryl)-azetidin-2-on-1-yl]acetate] |
| 64 | CC(C)(C)OC(=O)C(C(=O)Cc1cccc(C(F)(F)F)c1)N1C(=O)C(N2C(=O)OCC2c2ccccc2)C1C=Cc1ccccc1 (mixture of isomers) [Example 50, tert-Butyl 2(R,S)-[3-(trifluoro)phenylacetyl]-2-[3(S)-(4(S)-phenyloxazolidin-2-on-3-yl)-4(R)-(2-styryl)-azetidin-2-on-1-yl]acetate] |
| 13 | COC(=O)C(N1C(=O)[C@H](N2C(=O)OC[C@H]2c2ccccc2)[C@@H]1C=Cc1ccco1)C(O)(C(=O)c1ccccc1)c1ccccc1 (mixture of isomers) [Example 39, Methyl 2-(R,S)-[1-hydroxy-1,2-diphenyl-2-oxo-ethyl]-2-[3(R)-(4(R)-phenyloxazolidin-2-on-3-yl)-4(S)-(1-(fur-2-yl)-ethylen-2-yl)-azetidin-2-on-1-yl]acetate] |
| 2 | CC(C)(C)C(=O)[C@H](C(=O)OCc1ccccc1)N1C(=O)[C@@H](N2C(=O)OC[C@@H]2c2ccccc2)[C@H]1C=Cc1ccco1 [Example 54A, Benzyl 2-(R)-[2,2-dimethylpropanoyl]-2-[3(S)-(4(S)-phenyloxazolidin-2-on-3-yl)-4(R)-(1-(fur-2-yl)ethylen-2-yl)-azetidin-2-on-1-yl]acetate] |

Further lines, the molecule ahead of its results:

| SMILES | IC50 [nM] |
| --- | --- |
| Cc1cccc(CNC(=O)[C@H](CC(C)C)N2C(=O)[C@@H](N3C(=O)OC[C@@H]3c3ccccc3)[C@H]2/C=C/c2ccccc2)c1 [Example 112] | 25 |
| CCC1(C(C(=O)N2CCN(CCc3ccccc3)CC2)N2C(=O)[C@@H](N3C(=O)OC[C@@H]3c3ccccc3)[C@H]2/C=C/c2ccccc2)OCCO1 (stereo partly drawn) [Example 78] | 16 |
| CCC1(C(C(=O)NCc2cccc(C(F)(F)F)c2)N2C(=O)[C@@H](N3C(=O)OC[C@@H]3c3ccccc3)[C@H]2/C=C/c2ccccc2)OCCO1 (stereo partly drawn) [Example 67] | 5 |
| CC(C)(C)C(O)C(C(=O)N1CCC(CCN2CCCCC2)CC1)N1C(=O)[C@@H](N2C(=O)OC[C@@H]2c2ccccc2)[C@H]1C=Cc1ccccc1 (stereo partly drawn) [Example 40, 1-{2-(R,S)-[1-hydroxy-2,2-dimethylpropyl]-2-[3(S)-(4(S)-phenyloxazolidin-2-on-3-yl)-4(R)-(2-styryl)-azetidin-2-on-1-yl]acetyl}-4-(2-(piperidin-1-yl)-ethyl)piperidine] | 40 |
| CC(C)C[C@@H](C(=O)NCc1cccc(Cl)c1)N1C(=O)[C@@H](N2C(=O)OC[C@@H]2c2ccccc2)[C@H]1/C=C/c1ccccc1 [Example 109] | 40 |
| CC(C)C[C@@H](C(=O)N1CCC(CCN2CCCCC2)CC1)N1C(=O)[C@@H](N2C(=O)OC[C@@H]2c2ccccc2)[C@H]1/C=C/c1ccccc1 [Example 34, 1-{2-(S)-isobutyl-2-[3(S)-(4(S)-phenyloxazolidin-2-on-3-yl)-4(R)-(2-styryl)-azetidin-2-on-1-yl]acetyl}-4-(2-(piperidin-1-yl)-ethyl)piperidine] | 78 |
| CC(C)C[C@@H](C(=O)NCCCN1CCN(C)CC1)N1C(=O)[C@@H](N2C(=O)OC[C@@H]2c2ccccc2)[C@H]1/C=C/c1ccccc1 [Example 97] | 42 |

Tested on: golden hamsters
Experiment: vasopressin-induced flank marking in golden hamsters
Type: in vivo, golden hamsters (Mesocricetus auratus)
Conditions: microinjection into anterior hypothalamus as cocktail with 1 μM vasopressin; scored 10 minutes
Protocol: In golden hamsters, a particular stereotypy, flank marking behavior, can be induced by micro-injections of vasopressin ([…], 1-100 μM) into the anterior hypothalamus (Ferris, et al., Science, 224, 521-523 (1984); Albers and Ferris, Regulatory Peptides, 12, 257-260 (1985); Ferris et al., European Journal of Pharmacology, 154, 153-159 (1988)). Following the releasing stimulus, the behavior is initiated by grooming, licking and combing of the large sebaceous glands on the dorsolateral flanks. Bouts of flank gland grooming may be so intense that the flank region is left matted and soaked in saliva. After grooming, the hamsters display flank marking behavior, a type of scent marking involved in olfactory communication (Johnston, Physio. Behav., 51, 437-448 (1985); Ferris, et al., Physio. Behav., 40, 661-664 (1987)), by arching the back and rubbing the flank glands vigorously against any vertical surface.
All animals were adult male golden hamsters (Mesocricetus auratus) weighing approximately 160 gm. The animals underwent stereotaxic surgery, and were allowed to recover before behavioral testing. […]
The hamsters were microinjected with 1 μM vasopressin in a volume of […]. […] Animals were scored for flank marking for a period of 10 minutes in a clean cage.

| SMILES | inhibition of vasopressin-induced flank marking |
| --- | --- |
| CC(C)(C)C(=O)C(C(=O)OCc1ccccc1)N1C(=O)C(N2C(=O)OCC2c2ccccc2)C1C=Cc1ccccc1 (mixture of isomers) [Example 42, Benzyl 2-(R,S)-[2,2-dimethylpropanoyl]-2-[3(S)-(4(S)-phenyloxazolidin-2-on-3-yl)-4(R)-(2-styryl)azetidin-2-on-1-yl]acetate] | inhibited vasopressin-induced flank marking in a dose dependent manner |
